Drawing on patent US11028090B2 (Dong Wha Pharm. Co., Ltd., priority 2017, dated 2021), this text covers IC50 for 18 compounds.

Where two headings read alike, the source gives them in different places. Some results are limits rather than exact numbers.

The test system of experiment [1] is acute myelogenous leukemia cells (MV-4-11 cells). The experiment in a line: Cytotoxicity to acute myelogenous leukemia cells (MV-4-11 cells), CCK-8. The following applies: Homo sapiens, MV4-11, 72 h.
The target of experiment [2] is BRD4 (BD1+BD2) bromodomain (Homo sapiens (Human), UniProt O60885). Description: BRD4 binding inhibition (AlphaScreen, GST-BRD4 vs tetraacetylated histone H4 peptide). A digest of the protocol: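 AlphaScreen read after 30 min dark incubation at room temperature with glutathione acceptor/streptavidin donor beads (10 μg/ml each). The beads were added to compound plus 100 nM biotin-H4 (K5,8,12,16-acetyl) peptide and 100 nM GST-BRD4 BD1+BD2 in pH 7.4 HEPES/Tween/BSA/DTT buffer.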
A general note: Bead proximity is the source of the signal in Alpha formats.

Setting [3] is: read-out: MV-4-11 Cytotoxicity IC50.
The mark [4] stands for this setting: GST-BRD4 (BD1+BD2) / biotinylated acetyl-histone H4 (Lys5,8,12,16) peptide, read-out: IC50, BRD4 binding inhibition.
[5] abbreviates: GST-BRD4 (BD1+BD2) vs biotinylated acetyl-histone H4 peptide, AlphaScreen, read-out: BRD4 IC50.
The mark [6] stands for this setting: read-out: IC50, cytotoxicity against acute myelogenous leukemia cells.

On to `Cc1nnc2c(NCCCCNC(=O)CC(C)(C)C)nc3ccc(OC(F)(F)F)cc3n12` [Example 266, 3,3-dimethyl-N-[4-(1-methyl-8-trifluoromethoxy-[1,2,4]triazolo[4,3-a]quinoxaline-4-ylamino)-butyl]-butyramide], for which the IC50 (usually the concentration at which inhibition is half-maximal) in experiment [1] (setting [3]) is 540 nM; in experiment [2] (setting [4]), at most 50 nM; in experiment [2] (setting [5]) it was 43 nM.

For `COc1cc(C)c2nc(NCCCCNC(=O)OC(C)(C)C)c3nnc(C)n3c2c1` [Example 158, [4-(8-methoxy-1,6-dimethyl-[1,2,4]triazolo[4,3-a]quinoxaline-4-ylamino)-butyl]-carbamic acid-tert-butylester], the figures for the IC50 in experiment [1] (setting [3]), in experiment [2] (setting [4]) and in experiment [2] (setting [5]) were 610 nM, at most 50 nM and 18 nM, respectively.

`COCCOc1ccc2c(c1)nc(NCCCCNC(=O)CC(C)(C)C)c1nnc(C)n12` [Example 382, N-{4-[7-(2-methoxy-ethoxy)-1-methyl-[1,2,4]triazolo[4,3-a]quinoxaline-4-ylamino]-butyl}-3,3-dimethyl-butyramide]: the IC50 in experiment [1] (setting [3]) is 840 nM; in experiment [2] (setting [4]), at most 10 nM; in experiment [2] (setting [5]), 5 nM.

With `COc1cc2nc(NCCCCNC(=O)C3CC3)c3nnc(C)n3c2cc1OC` [Example 76, cyclopropane-carboxylic acid-[4-(7,8-dimethoxy-1-methyl-[1,2,4]triazolo[4,3-a]quinoxaline-4-ylamino)-butyl]-amide], the values for the IC50 in experiment [1] (setting [3]), in experiment [2] (setting [4]) and in experiment [2] (setting [5]) were 870 nM, at most 50 nM and 38 nM, respectively.

For the compound `C#CCNc1cc2c(cc1OC)nc(NCCCCNC(=O)CC(C)C)c1nnc(C)n12` [Example 560], the IC50 in experiment [1] (setting [6]) was at most 200 nM; in experiment [1] (setting [3]) it was 71 nM; in experiment [2] (setting [4]) it was at most 50 nM; in experiment [2] (setting [5]) it was 37 nM.

On to `Cc1nnc2c(NCCCCNC(=O)CC(C)C)nc3cc(N)ccc3n12` [Example 245, N-[4-(7-amino-1-methyl-[1,2,4]triazolo[4,3-a]quinoxaline-4-ylamino)-butyl]-3-methyl-butyramide], for which the values for the IC50 in experiment [1] (setting [3]), in experiment [2] (setting [4]) and in experiment [2] (setting [5]) were 361 nM, at most 50 nM and 32 nM, respectively.

`CCC(C)CC(=O)NCCCCNc1nc2cc(N3CCOCC3)ccc2n2c(C)nnc12` (stereo not drawn) [Example 501, 3-methyl-pentanoic acid-[4-(1-methyl-7-morpholine-4-yl-[1,2,4]triazolo[4,3-a]quinoxaline-4-ylamino)-butyl]-amide]: the IC50 in experiment [1] (setting [6]) is at most 200 nM; in experiment [1] (setting [3]) it was 60 nM; in experiment [2] (setting [4]) it was at most 10 nM; in experiment [2] (setting [5]), 9 nM.

Take `Cc1nnc2c(NCCCCNC(=O)[C@@H](NC(=O)OC(C)(C)C)C(C)C)nc3cc(N4CCOCC4)ccc3n12` [Example 502, (S)-{2-methyl-1-[4-(1-methyl-7-morpholine-4-yl-[1,2,4]triazolo[4,3-a]quinoxaline-4-ylamino)-butylcarbamoyl]-propyl}-carbamic acid-tert-butylester]: the IC50 was 331 nM in experiment [1] (setting [3]), at most 50 nM in experiment [2] (setting [4]) and 30 nM in experiment [2] (setting [5]).

For the compound `Cc1nnc2c(NCCCCNC(=O)NC(C)C)nc3cc(-c4nc5ccccc5n4C)ccc3n12` [Example 238, 1-isopropyl-3-{4-[1-methyl-7-(1-methyl-1H-benzoimidazole-2-yl)-[1,2,4]triazolo[4,3-a]quinoxaline-4-ylamino]-butyl}-urea], the half-inhibitory concentration (IC50) in experiment [1] (setting [3]) is 650 nM; in experiment [2] (setting [4]), at most 50 nM; in experiment [2] (setting [5]) it was 15 nM.

Turning to `Cc1nnc2c(NCCCCNC(=O)[C@H](O)C(C)C)nc3cc(-c4nc5ccccc5[nH]4)ccc3n12` [Example 226, N-{4-[7-(1H-benzoimidazole-2-yl)-1-methyl-[1,2,4]triazolo[4,3-a]quinoxaline-4-ylamino]-butyl}-2-(R)-hydroxy-3-methyl-butyramide], the IC50 is 290 nM in experiment [1] (setting [3]), at most 10 nM in experiment [2] (setting [4]) and 4 nM in experiment [2] (setting [5]).

With `COCCOc1ccc2c(c1)nc(NCCCCNC(=O)C(NC(=O)OC(C)(C)C)C(C)C)c1nnc(C)n12` (stereo not drawn) [Example 396, (1-{4-[7-(2-methoxy-ethoxy)-1-methyl-[1,2,4]triazolo[4,3-a]quinoxaline-4-ylamino]-butylcarbamoyl}-2-methyl-propyl)-carbamic acid-tert-butylester], the IC50 in experiment [1] (setting [3]) is 760 nM; in experiment [2] (setting [4]), at most 10 nM; in experiment [2] (setting [5]), 7 nM.

`Cc1nnc2c(NCCCCNC(=O)CC(C)C)nc3cc(OCc4ccccc4)ccc3n12` [Example 346, N-[4-(7-benzyloxy-1-methyl-[1,2,4]triazolo[4,3-a]quinoxaline-4-ylamino)-butyl]-3-methyl-butyramide]: the IC50 in experiment [1] (setting [6]) is at most 200 nM; in experiment [1] (setting [3]) it was 79 nM; in experiment [2] (setting [4]), at most 50 nM; in experiment [2] (setting [5]), 22 nM.

For the compound `COc1ccc2c(c1)nc(NCCCCNC(=O)C(C)C)c1nnc(C)n12` [Example 281, N-[4-(7-methoxy-1-methyl-[1,2,4]triazolo[4,3-a]quinoxaline-4-ylamino)-butyl]-isobutyramide], the IC50 in experiment [1] (setting [6]) is at most 200 nM; in experiment [1] (setting [3]), 158 nM; in experiment [2] (setting [4]), at most 10 nM; in experiment [2] (setting [5]), 0.4 nM.

Regarding `Cc1ccc(NC(=O)c2ccc3c(c2)nc(NCCCCNC(=O)CC(C)C)c2nnc(C)n23)c(N)c1` [Example 216, 1-methyl-4-[4-(3-methyl-butyrylamino)-butylamino]-[1,2,4]triazolo[4,3-a]quinoxaline-7-carboxylic acid-(2-amino-4-methyl-phenyl)-amide], the figures for the 50% inhibitory concentration (IC50) in experiment [1] (setting [3]), in experiment [2] (setting [4]) and in experiment [2] (setting [5]) were 240 nM, at most 50 nM and 31 nM, respectively.

On to `COc1ccc2c(c1)nc(NCCCCNC(=O)C(N)C(C)C)c1nnc(C)n12` (stereo not drawn) [Example 311, 2-amino-N-[4-(7-methoxy-1-methyl-[1,2,4]triazolo[4,3-a]quinoxaline-4-ylamino)-butyl]-3-methyl-butyramide], for which the IC50 in experiment [1] (setting [3]) was 208 nM; in experiment [2] (setting [4]) it was at most 50 nM; in experiment [2] (setting [5]), 43 nM.

`CCOc1ccc2c(c1)nc(NCCCCNC(=O)OC(C)(C)C)c1nnc(C)n12` [Example 440, [4-(7-ethoxy-1-methyl-[1,2,4]triazolo[4,3-a]quinoxaline-4-ylamino)-butyl]-carbamic acid-tert-butylester]: the IC50 is 580 nM in experiment [1] (setting [3]), at most 10 nM in experiment [2] (setting [4]) and 9 nM in experiment [2] (setting [5]).

Regarding `CCCOC(=O)N[C@H](C(=O)NCCCCNc1nc2cc(N3C[C@@H](C)O[C@@H](C)C3)ccc2n2c(C)nnc12)C(C)C` [Example 516, (S)-(1-{4-[7-(2,6-dimethyl-morpholine-4-yl)-1-methyl-[1,2,4]triazolo[4,3-a]quinoxaline-4-ylamino]-butylcarbamoyl}-2-methyl-propyl)-carbamic acid propylester], the IC50 in experiment [1] (setting [3]) is 518 nM; in experiment [2] (setting [4]), at most 50 nM.

Consider `COCCOc1ccc2c(c1)nc(NCCCCNC(=O)[C@@H](NC(=O)OCC(C)C)C(C)C)c1nnc(C)n12` [Example 398, (S)-(1-{4-[7-(2-methoxy-ethoxy)-1-methyl-[1,2,4]triazolo[4,3-a]quinoxaline-4-ylamino]-butylcarbamoyl}-2-methyl-propyl)-carbamic acid isobutylester], for which the IC50 in experiment [1] (setting [3]) was 790 nM; in experiment [2] (setting [4]) it was at most 10 nM; in experiment [2] (setting [5]), 1 nM.
